How the values were obtained:
Format in all cases: in vivo
129S6/SvEv mice [1] = assay: Forced swim test (FST); immobility time; settings: for p, Fisher's PLSD Saline vs. drug, FST Day 2 Immobility Time (sec): drug 1 week before stress; for Behavior: Depressive-like: dose 30 mg/kg
Experimental: The FST was administered as previously described (47). Briefly, mice were placed into clear plastic buckets 20 cm in diameter and 23 cm deep filled ⅔ of the way with 22° C. water. Mice were videotaped from the side for 6 min and were exposed to the swim test on 2 consecutive days Immobility time was scored by an experimenter blind to the experimental groups.

129S6/SvEv mice [2] = assay: Open field (OF); settings: for distance travelled in the OF / time spent in the center of the OF arena: vs saline
Experimental: (§1) The OF assay was administered as previously described (47). Briefly, motor activity was quantified in 4 Plexiglas open field boxes 43×43 cm^2 (MED Associates, Georgia, Vt.). Two sets of 16 pulse-modulated infrared photobeams on opposite walls 2.5-cm apart recorded x-y ambulatory movements. Activity chambers were computer interfaced for data sampling at 100-ms resolution. The computer defined grid lines that dividing center and surround regions, with the center square consisting of four lines 11 cm from the wall.

129S6/SvEv mice [3] = assay: Marble burying (MB); settings: 30 mg/kg; drug 5 minutes after stress; FIG. 2K
Experimental: (§2) The MB assay was conducted in a clean cage (10.5 in×5.5 in) containing soft pliable Beta Chip bedding (Northeastern Products Corp, Warrensburg, N.Y.). The cage contained 16 marbles set up in 4 rows of 4 across. Mice were given 30 minutes to explore and bury. At the end of the assay, the percentage of marbles buried was calculated.

129S6/SvEv mice [4] = assay: Elevated plus maze (EPM); settings: (R,S)-ketamine 30 mg/kg, FENM 10, 20 or 30 mg/kg, vs saline
Experimental: (§3) Testing was performed as previously described (47). Briefly, the maze is a plus-cross-shaped apparatus consisting of four arms, two open and two enclosed by walls, linked by a central platform at a height of 50 cm from the floor. Mice were individually placed in the center of the maze facing an open arm and were allowed to explore the maze for 5 min. The time spent in and the number of entries into the open arms was used as an anxiety index. Videos were scored using ANY-maze behavior tracking software (Stoelting, Wood Dale, Ill.).

129S6/SvEv mice [5] = assay: Novelty suppressed feeding (NSF)
Experimental: Testing was performed as previously described (47). Briefly, the NSF testing apparatus consisted of a plastic box (50×50×20 cm). The floor of which was covered with approximately 2 cm of wooden bedding and the arena was brightly lit (approximately 1000 lux). Mice were food restricted for 24 h prior to testing. At the time of testing, a single pellet of food (regular chow) was placed on a white paper platform positioned in the center of the box. Each animal was placed in a corner of the box, and a stopwatch was immediately started. The latency of the mice to begin eating in the arena was recorded Immediately after the latency was recorded, the food pellet was removed from the arena. The mice were then placed back into their home cage. The latency to eat and the amount of food consumed in 5 min were measured (home cage consumption), followed by an assessment of post-restriction weight. A Kaplan-Meier survival analysis was used due to the lack of normal distribution of data. The Mantel-Cox log-rank test was used to evaluate differences between the experimental groups.

129S6/SvEv mice [6] = assay: Anxiety-like behavior, summary of anxiety tests (OF, MB, EPM); settings: (R,S)-ketamine 30 mg/kg, FENM 20 mg/kg, vs saline
Experimental: as §3, §1, §2

[7] = 30 mg/kg, drug 5 minutes after stress, FIG. 2F
[8] = 5 min prior to CFC, (R,S)-ketamine 30 mg/kg, FENM 20 mg/kg, vs saline
[9] = Saline vs. (R,S)-ketamine (30 mg/kg), FIG. 8H
[10] = 1 week prior to CFC, (R,S)-ketamine 30 mg/kg, FENM 10, 20 or 30 mg/kg
[11] = 5 min prior to CFC, (R,S)-ketamine 30 mg/kg, FENM 20 mg/kg
[12] = Fisher's PLSD, drug 5 minutes after stress, FENM 20 mg/kg, (R,S)-ketamine 30 mg/kg
[13] = Saline vs. (R,S)-ketamine (30 mg/kg), cohort 5 min before re-exposure 1, FIG. 9L
[14] = 5 minutes after CFC, re-exposure 5 days after training
[15] = 5 min after context re-exposure 1, (R,S)-ketamine 30 mg/kg, FENM 20 mg/kg, vs saline
[16] = 5 minutes after CFC, re-exposure 1 day after training, (R,S)-ketamine 30 mg/kg, FENM 20 mg/kg, vs saline
[17] = 5 minutes prior to re-exposure 1, (R,S)-ketamine 30 mg/kg, FENM 20 mg/kg, vs saline

CNC1(c2ccccc2Cl)CCCCC1=O (racemic) [(R,S)-ketamine, reference compound]
p, Fisher's PLSD Saline vs. drug, FST Day 2 Immobility Time (sec) (129S6/SvEv mice [1]; 30 mg/kg, after ANOVA, FIG. 1G): 0.0007
p, Fisher's PLSD Saline vs. drug, FST Day 2 Immobility Time (sec) (129S6/SvEv mice [1]; 30 mg/kg, after RMANOVA, FIG. 1F): 0.0003
p, Fisher's PLSD Saline vs. drug, FST Day 2 Immobility Time Min 1 (s) (129S6/SvEv mice [1]; [7]): 0.7994
p, Fisher's PLSD Saline vs. drug, FST Day 2 Immobility Time Min 2 (s) (129S6/SvEv mice [1]; [7]): 0.0125
p, Fisher's PLSD Saline vs. drug, FST Day 2 Immobility Time Min 3 (s) (129S6/SvEv mice [1]; [7]): 0.8598
p, Fisher's PLSD Saline vs. drug, FST Day 2 Immobility Time Min 4 (s) (129S6/SvEv mice [1]; [7]): 0.2874
p, Fisher's PLSD Saline vs. drug, FST Day 2 Immobility Time Min 5 (s) (129S6/SvEv mice [1]; [7]): 0.6526
p, Fisher's PLSD Saline vs. drug, FST Day 2 Immobility Time Min 6 (s) (129S6/SvEv mice [1]; [7]): 0.1586
p, Fisher's PLSD Saline vs. drug, FST Day 2 Immobility Time (s) (129S6/SvEv mice [1]; 30 mg/kg, drug 5 minutes after stress, after ANOVA, FIG. 2G): 0.0466
immobility time, day 2 of the FST (129S6/SvEv mice [1]; [8]): significantly decreased immobility time
Behavior: Depressive-like (129S6/SvEv mice [1]; Antidepressant (5 min after stress)): ↓
p, Immobility Time (s), FST Day 2, Saline vs. drug (129S6/SvEv mice [1]; Fisher's PLSD after ANOVA, drug 5 minutes after stress, FENM 20 mg/kg, (R,S)-ketamine 30 mg/kg, FIG. 3K): 0.6082
p, Immobility Time (s), FST Day 2, Saline vs. drug (129S6/SvEv mice [1]; Fisher's PLSD after RMANOVA, drug 5 minutes after stress, FENM 20 mg/kg, (R,S)-ketamine 30 mg/kg, FIG. 3J): 0.8125
Behavior: Depressive-like (129S6/SvEv mice [1]; Prophylactic (5 min before stress)): ↓
Behavior: Depressive-like (129S6/SvEv mice [1]; Prophylactic (7 days before stress)): ↓
Forced Swim Test Day 1, Immobility Time Min 1 (sec), p (Fisher's LSD) (129S6/SvEv mice [1]; [9]): 0.0026
Forced Swim Test Day 1, Immobility Time Min 2 (sec), p (Fisher's LSD) (129S6/SvEv mice [1]; [9]): 0.2638
Forced Swim Test Day 1, Immobility Time Min 3 (sec), p (Fisher's LSD) (129S6/SvEv mice [1]; [9]): 0.2171
Forced Swim Test Day 1, Immobility Time Min 4 (sec), p (Fisher's LSD) (129S6/SvEv mice [1]; [9]): 0.6849
Forced Swim Test Day 1, Immobility Time Min 5 (sec), p (Fisher's LSD) (129S6/SvEv mice [1]; [9]): 0.2114
Forced Swim Test Day 1, Immobility Time Min 6 (sec), p (Fisher's LSD) (129S6/SvEv mice [1]; [9]): 0.0499
Forced Swim Test Day 2, Immobility Time (sec), p (Fisher's LSD) (129S6/SvEv mice [1]; Saline vs. (R,S)-ketamine (30 mg/kg), after ANOVA, FIG. 8K): 0.0046
Forced Swim Test Day 2, Immobility Time (sec), p (Fisher's LSD) (129S6/SvEv mice [1]; Saline vs. (R,S)-ketamine (30 mg/kg), after RMANOVA, FIG. 8J): 0.0036
distance travelled in the OF (129S6/SvEv mice [2]; [10]): did not alter
time spent in the center of the OF arena (129S6/SvEv mice [2]; [10]): did not alter
distance travelled in the OF (129S6/SvEv mice [2]; [11]): did not alter
time spent in the center of the OF arena (129S6/SvEv mice [2]; [11]): did not alter
p, Distance Travelled (cm), OF, Saline vs. drug (129S6/SvEv mice [2]; Fisher's PLSD after RMANOVA, drug 5 minutes after stress, FENM 20 mg/kg, (R,S)-ketamine 30 mg/kg, FIG. 3L): 0.9319
p, Distance Travelled Min 1 (cm), OF, Saline vs. drug (129S6/SvEv mice [2]; [12]): 0.0589
p, Distance Travelled Min 2 (cm), OF, Saline vs. drug (129S6/SvEv mice [2]; [12]): 0.0098
p, Distance Travelled Min 3 (cm), OF, Saline vs. drug (129S6/SvEv mice [2]; [12]): 0.1586
p, Distance Travelled Min 4 (cm), OF, Saline vs. drug (129S6/SvEv mice [2]; [12]): 0.6504
p, Distance Travelled Min 5 (cm), OF, Saline vs. drug (129S6/SvEv mice [2]; [12]): 0.3454
p, Distance Travelled Min 6 (cm), OF, Saline vs. drug (129S6/SvEv mice [2]; [12]): 0.7410
p, Distance Travelled Min 7 (cm), OF, Saline vs. drug (129S6/SvEv mice [2]; [12]): 0.1344
p, Distance Travelled Min 8 (cm), OF, Saline vs. drug (129S6/SvEv mice [2]; [12]): 0.1467
p, Distance Travelled Min 9 (cm), OF, Saline vs. drug (129S6/SvEv mice [2]; [12]): 0.0061
p, Distance Travelled Min 10 (cm), OF, Saline vs. drug (129S6/SvEv mice [2]; [12]): 0.4667
Open Field, Distance Travelled Min 1 (cm), p (Fisher's LSD) (129S6/SvEv mice [2]; [13]): 0.3306
Open Field, Distance Travelled Min 2 (cm), p (Fisher's LSD) (129S6/SvEv mice [2]; [13]): 0.5200
p, Fisher's PLSD Saline vs. drug, MB Marbles Buried (no.) (129S6/SvEv mice [3]): 0.7292
distance travelled in the EPM (129S6/SvEv mice [4]; 1 week prior to CFC): did not alter
time spent in the open arms and center of the EPM (129S6/SvEv mice [4]; 1 week prior to CFC): did not alter
distance travelled in the EPM (129S6/SvEv mice [4]; [14]): did not alter
time spent in the open arms and center of the EPM (129S6/SvEv mice [4]; [14]): did not alter
latency to feed in the open arena (NSF) (129S6/SvEv mice [5]; 1 week prior to CFC, (R,S)-ketamine 30 mg/kg, FENM 10, 20 or 30 mg/kg, vs saline): did not alter
latency to eat in the NSF arena (129S6/SvEv mice [5]; [15]): did not alter
latency to eat in the homecage (NSF) (129S6/SvEv mice [5]; [15]): did not alter
latency to feed in the open arena (NSF) (129S6/SvEv mice [5]; [8]): increased the latency to feed
latency to feed in the home cage (NSF) (129S6/SvEv mice [5]; [16]): did not alter
latency to feed in the open arena (NSF) (129S6/SvEv mice [5]; [16]): did not alter
latency to feed in the open arena (NSF) (129S6/SvEv mice [5]; 5 minutes after CFC, re-exposure 5 days after training, (R,S)-ketamine 30 mg/kg, FENM 10, 20 or 30 mg/kg, vs saline): did not alter
latency to eat in the NSF arena (129S6/SvEv mice [5]; [17]): did not alter
latency to eat in the homecage (NSF) (129S6/SvEv mice [5]; [17]): did not alter
Novelty Suppressed Feeding, Latency to feed in OF (sec), p (Fisher's LSD) (129S6/SvEv mice [5]; Saline vs. (R,S)-ketamine (30 mg/kg), FIG. 8P): 0.0575
behavior in all anxiety tests, with the exception of the time spent in the center of the OF (129S6/SvEv mice [6]; 5 min after context re-exposure 1): did not alter behavior
behavior in all anxiety tests (129S6/SvEv mice [6]; 5 minutes prior to context re-exposure 1 (24 h after CFC)): did not alter behavior
